Molecular target: T1, OR4K2 (Homo sapiens, UniProt Q8NGD2)
T1 construct: specific primers, which amplify the complete open reading frame; expressed in transfected cells; host or cells: HEK293
T1 sequence (Q8NGD2 1-314): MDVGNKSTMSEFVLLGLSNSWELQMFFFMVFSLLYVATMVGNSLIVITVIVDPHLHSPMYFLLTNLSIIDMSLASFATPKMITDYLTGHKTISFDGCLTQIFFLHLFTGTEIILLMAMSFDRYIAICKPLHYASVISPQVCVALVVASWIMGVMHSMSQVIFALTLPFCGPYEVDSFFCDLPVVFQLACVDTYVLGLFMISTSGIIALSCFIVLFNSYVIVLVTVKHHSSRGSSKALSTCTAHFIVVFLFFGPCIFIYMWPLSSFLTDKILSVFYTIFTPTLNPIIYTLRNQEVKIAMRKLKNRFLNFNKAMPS
Assay: Ca-imaging of OR4K2-transfected HEK293 cells
Format: cell-based
Parameters: key to OR4K2 responded to odorant: ▪: 18 olfactory receptors responded to 32 odorants in related with specific anosmia
Procedure: HEK293 cells were cultivated in Petri dishes (Ø35 mm) as previously described (Benbernou et al. 2007). We grow up HEK293 cells in culture medium containing standard DMEM with 10% heat-inactivated fetal bovine serum, 2 mM L-glutamine, 100 units/ml penicillin, and 100 units/ml streptomycin in a humidified atmosphere (37° C., 5% CO2). After 2-3 days, the transfection process was carried out, whereby the cell culture was 70-80% confluent. The calciumphosphate method was applied to transfect DNA plasmid transiently in HEK293 cells in case of Ca-imaging method.
Calcium cations and phosphate anions created crystal precipitations coupled with DNA which could invade into the cells through endocytosis. Cells were transiently transfected with plasmid DNA which consists of pCI expression vector and PCR-amplified full-length cDNA of olfactory receptors candidates, and also Gα15, RTP1, Myr-Ric8A, HSC70, and m-Cherry as cofactors. The precipitation could be created after 15-20 min, with dropping the transfection solution on HEK293 cells. Before measuring by Ca-imaging cells were incubated 48-60 hours at 370 C, 5% CO2. Cationic liposome-mediated transfection method was applied to transfect DNA plasmid transiently in HANA3A cells in case of CRE-Luciferase and CRE-SEAP assays.
Calcium imaging of the transfected HEK293 cells was done by using chambers determinate an inverted microscope (Olympus; IX70) using a 10× objective (CPIanFL N Olympus). Fluorescence emission was determined every 4 s by using a CCD camera (Charge Coupled Device, C9100 Hamamatsu). The capillary tube which was responsible to supply odorants was generated closely above the cells. The columns filled with odorants, DMSO and ATP. Odorants were manually monitored to drop each 4-5 s to transfected cells. Solutions with drop wise form spread on HEK293 cells in 35 mm dishes.
In experiments, Fura-2 Acetoxymethylester (Fura-2/AM) was applied. The non-polar Fura2/AM is fluorescent but not yet calcium-sensitive. Once diffuses into cell plasma, Fura-2/AM is hydrolyzed to Fura-2 which is calcium-sensitive and functions as Ca2+ chelator. Regardless of the presence of calcium, Fura-2 emits at the wavelength of 510 nm. Once Fura-2 binds to free intracellular Ca2+ in cell plasma, its ratio of excitation at wavelengths of 340 nm and 380 nm is changed and correlated to the amount of intracellular Ca2+. According to this feature, the analysis of 340/380 nm excitation ratio for Fura-2 allows to quantify intracellular calcium levels.
In preparation for Ca-imaging measurements, transfected HEK293 cells were added 3 it Fura2/AM (3 μM) and incubated 30-45 min at 370 C, 5% CO2. After this step, experiments were carried out in a dark condition (Fura-2 is light-sensitive). After the incubation, medium of cell culture was replaced with 2 ml Ringer's solution.
Odorants were freshly prepared with DMSO as 1 M stocks solutions. Six mixtures (200 μM each chemical) were applied to cells sequentially (20 s each mixture/30 s Ringer). Those ORs tested with single odorants that had generated a response to odorant mixture group previously. Odorants were prepared in 100-200 μM concentration.
Ringer's solution was used for washing cells between measuring by two different odorants. Positive response was determined by the timing of the response, the strength of the response (more than twofold higher than the noise amplitude of the baseline), and the shape of the response curve (sharp rise in curve with gradual recovery). […]

- OR4K2 responded to odorant (HEK293 cells, individual odorant 200 μM, significant response p<0.05): ▪
- Response of OR4K2 to odorant, in words (single odorants 200 μM): responded
SMILES: O=C1CCCCCCCCCCCCCCO1 [Pentadecanolide, ω-cyclopentadecanolide]
